The values below are quoted from earlier work in publication PMC3867298 (Clinical cancer research : an official journal of the …, 2010).

For this series, the system named is renal cell carcinoma patients. The following applies: 375 renal cell carcinoma patients, recommended phase 2 dose; cited from earlier work.

Regarding `CCN(CC)CCNC(=O)c1c(C)[nH]c(/C=C2\C(=O)Nc3ccc(F)cc32)c1C` [sunitinib], the “Patients with at least 1 treatment-related dose reduction” value was 32%.
